Values joined by “and” are separate entries in the source; they are usually repeats but may differ in a detail not shown here. Identical values can stand only once. Like-named read-outs stand apart in the source and are kept apart here.
Legend:
[1] = Electronic absorption spectra in MeOH; format: physicochemical; settings: in CH3OH
[2] = molecular target: T1, P-gp (Homo sapiens, UniProt P08183); experiment: P-gp transport studies across MDCKII-MDR1 monolayers; settings: for PPassive: mean of PAB and PBA in the fully inhibited system; for PBA/PAB / PBA, transport in secretory direction / PAB, transport in absorptive direction: no inhibitor; for PBA, transport in secretory direction / PAB, transport in absorptive direction (+inh) / PBA, transport in secretory direction (+inh) / PAB, transport in absorptive direction: 5 × 10^−6 M dye, 4.3 mg mL^−1 BSA, ± SD; for PAB, transport in absorptive direction (+inh) / PBA, transport in secretory direction (+inh): with 5 × 10^−6 M inhibitor 15
[3] = system: CD4+ (helper T cells); format: cell-based, human
[4] = format: physicochemical; settings: air-saturated CH3OH, ± SD
[5] = system: CD3+ cells of SEB-stimulated PBMCs; format: cell-based, human
[6] = system: CD3+ (CD25+) cells; format: cell-based, human
[7] = system: CD8+ (cytotoxic T cells); format: cell-based, human
[8] = Steady-state fluorescence spectra and quantum yields in CH3OH; format: physicochemical; settings: for Quantum yield for fluorescence ΦFL: excitation at 532 nm, ± SD
[9] = system: HUT-78 cells; format: cell-based, human
[10] = ± SD; cited from earlier work
[11] = in CH3OH; cited from earlier work
[12] = CH3OH, ± SD; cited from earlier work
[13] = system: Colo-26 cells; settings: P-gp-expressing Colo-26 cells; cited from earlier work
[14] = system: CD3+ (CD25−) cells; format: cell-based, human
[15] = system: HUT-78 cells; experiment: Uptake in presence and absence of verapamil by flow cytometry; format: cell-based, human; settings: 2 × 10^−7 M selenorhodamine, 1 × 10^−4 M VER, 1 h, mean ± SD
[16] = molecular target: T1, P-gp; settings: cited from earlier work; for PPassive: mean of PAB and PBA in the fully inhibited system; for PAB, transport in absorptive direction / PBA, transport in secretory direction / PBA/PAB: no inhibitor; for PAB, transport in absorptive direction (+inh) / PBA, transport in secretory direction (+inh): with inhibitor
[17] = in CH3OH, cited from earlier work; for Quantum yield for fluorescence ΦFL: excitation at 532 nm, ± SD
[18] = system: HUT-78 cells; experiment: Colocalization with organelle reporters by ImageStream imaging flow cytometry; format: cell-based, human; settings: ± SD

T1 sequence (P08183 whole entry): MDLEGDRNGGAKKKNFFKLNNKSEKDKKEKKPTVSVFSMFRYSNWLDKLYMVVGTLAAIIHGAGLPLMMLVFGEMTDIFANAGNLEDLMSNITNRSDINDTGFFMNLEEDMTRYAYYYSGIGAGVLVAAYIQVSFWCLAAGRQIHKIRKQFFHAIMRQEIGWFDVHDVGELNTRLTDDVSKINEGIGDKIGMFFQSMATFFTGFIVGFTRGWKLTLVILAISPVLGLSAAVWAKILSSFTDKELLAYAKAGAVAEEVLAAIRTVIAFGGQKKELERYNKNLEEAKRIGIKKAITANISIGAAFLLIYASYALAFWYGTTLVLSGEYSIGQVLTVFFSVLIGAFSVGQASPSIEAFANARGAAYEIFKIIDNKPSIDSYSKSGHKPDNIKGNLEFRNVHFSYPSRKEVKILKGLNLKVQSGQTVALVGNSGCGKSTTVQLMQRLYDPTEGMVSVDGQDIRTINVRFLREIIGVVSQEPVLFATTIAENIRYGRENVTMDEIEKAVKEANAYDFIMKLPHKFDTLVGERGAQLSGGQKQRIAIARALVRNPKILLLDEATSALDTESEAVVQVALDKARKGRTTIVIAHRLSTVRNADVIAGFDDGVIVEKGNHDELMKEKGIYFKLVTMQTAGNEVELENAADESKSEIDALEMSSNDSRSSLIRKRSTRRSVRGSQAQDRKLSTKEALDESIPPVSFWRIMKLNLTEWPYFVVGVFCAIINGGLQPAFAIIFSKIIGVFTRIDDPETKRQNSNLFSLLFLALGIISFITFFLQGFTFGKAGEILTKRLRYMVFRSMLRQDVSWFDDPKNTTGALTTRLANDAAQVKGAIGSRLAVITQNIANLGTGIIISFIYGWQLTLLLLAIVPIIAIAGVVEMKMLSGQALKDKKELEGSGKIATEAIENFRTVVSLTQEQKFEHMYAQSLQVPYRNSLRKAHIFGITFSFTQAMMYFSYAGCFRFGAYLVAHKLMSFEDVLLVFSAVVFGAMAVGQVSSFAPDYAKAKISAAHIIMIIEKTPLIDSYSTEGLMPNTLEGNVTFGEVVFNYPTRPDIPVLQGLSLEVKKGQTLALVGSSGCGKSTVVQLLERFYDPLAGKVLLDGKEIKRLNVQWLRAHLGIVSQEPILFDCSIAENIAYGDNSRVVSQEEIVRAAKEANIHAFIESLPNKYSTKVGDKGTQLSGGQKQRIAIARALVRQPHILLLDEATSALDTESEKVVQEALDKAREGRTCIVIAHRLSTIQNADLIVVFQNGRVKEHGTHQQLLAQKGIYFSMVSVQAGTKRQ

| Compound | Absorption maximum λmax [1] [nm] | Molar extinction coefficient ε [1] [M⁻¹ cm⁻¹] | PPassive [2] | PBA/PAB [2] | PBA, transport in secretory direction [2] | PAB, transport in absorptive direction (+inh) [2] | PBA, transport in secretory direction (+inh) [2] | Quantum yield for the generation of singlet oxygen Φ(1O2) [4] | % survival CD3+ [5] [%] | % survival CD3+ (CD25+) [6] [%] | Fluorescence emission maximum λFL [8] [nm] | Quantum yield for fluorescence ΦFL [8] | % survival HUT-78 [9] [%] | PAB, transport in absorptive direction [2] | n-octanol/water partition coefficient log P [10] | Absorption maximum λmax [11] [nm] | Molar extinction coefficient ε [11] [M⁻¹ cm⁻¹] | Quantum yield for the generation of singlet oxygen Φ(1O2) [12] | ratio of uptake +VER/−VER [13] | % survival CD3+ (CD25−) [14] [%] | other results |
| --- | --- | --- | --- | --- | --- | --- | --- | --- | --- | --- | --- | --- | --- | --- | --- | --- | --- | --- | --- | --- | --- |
| CN1CCC(C)(C)c2cc3c(cc21)[Se]c1cc2c(cc1=C3c1ccc(C(=S)N3CCCCC3)s1)C(C)(C)CC[N+]=2C.[Cl-] [Compd 9] | 614 | 93000 | <1 ×10^−9 m s^−1 | 4 | 6.3 ×10^−9 m s^−1 and 6.3 ± 1.2 ×10^−9 m s^−1 | 0.51 ± 0.1 ×10^−9 m s^−1 | 0.13 ± 0.1 ×10^−9 m s^−1 | 0.64 ± 0.03 | 9.2 ± 2.2 | 7.0 ± 0.7 | 645 | 0.006 ± 0.001 | 8.1 ± 4.1 | – | – | – | – | – | – | – | % survival CD4+ [3]: 0 ± 0%; % survival CD8+ [7]: 0 ± 0% |
| C[N+]1=c2cc3c(cc2C(C)(C)CC1)=C(c1ccc(C(=S)N2CCCCC2)s1)c1cc2c4c(c1[Se]3)CCCN4CCC2.[Cl-] [Compd 7] | 620 | 92000 | <1 ×10^−9 m s^−1 | 20 | 8.8 ×10^−9 m s^−1 and 8.8 ± 0.3 ×10^−9 m s^−1 | 0.46 ± 0.1 ×10^−9 m s^−1 | 0.32 ± 0.2 ×10^−9 m s^−1 | 0.54 ± 0.03 | 5.7 ± 2.6 | 2.6 ± 0.9 | 650 | 0.008 ± 0.001 | 5.1 ± 0.9 | 0.44 ± 0.1 ×10^−9 m s^−1 | – | – | – | – | – | – | % survival CD4+ [3]: 0 ± 0%; % survival CD8+ [7]: 0 ± 0% |
| CN1CCC(C)(C)c2cc3c(-c4ccc(C(=S)N5CCCCC5)s4)c4ccc(=[N+](C)C)cc-4[se]c3cc21.[Cl-] [Compd 3] | – | – | – | – | – | – | – | – | 21.0 ± 3.2 | 9.2 ± 1.0 | – | – | 8.5 ± 1.2 | – | 1.61 ± 0.06 | 608 | 81100 | 0.44 ± 0.03 | 1.9 | 29.1 ± 5.2 | ratio of uptake +VER/−VER [15]: 1.27 ± 0.19; PPassive [16]: ~2 ×10^−9 m s^−1; PAB, transport in absorptive direction [16]: 1.9 ± 0.5 ×10^−9 m s^−1; PBA, transport in secretory direction [16]: 29 ×10^−9 m s^−1 and 29 ± 3 ×10^−9 m s^−1; PBA/PAB [16]: 15; PAB, transport in absorptive direction (+inh) [16]: 1.7 ± 0.2 ×10^−9 m s^−1; PBA, transport in secretory direction (+inh) [16]: 1.8 ± 0.1 ×10^−9 m s^−1; Quantum yield for fluorescence ΦFL [17]: 0.008 ± 0.001; Fluorescence emission maximum λFL [17]: 634 nm |
| C[N+]1=c2cc3c(cc2C(C)(C)CC1)=C(c1ccc(C(=O)N2CCCCC2)s1)c1cc2c4c(c1[Se]3)CCCN4CCC2.[Cl-] [Compd 8] | 620 | 110000 | ~1 ×10^−9 m s^−1 | 48 | 66 ×10^−9 m s^−1 and 66 ± 10 ×10^−9 m s^−1 | 0.18 ± 0.1 ×10^−9 m s^−1 | 2.8 ± 0.2 ×10^−9 m s^−1 | 0.64 ± 0.03 | 10.3 ± 1.4 | 5.0 ± 0.9 | 650 | 0.009 ± 0.001 | 6.0 ± 0.2 | 1.4 ± 0.8 ×10^−9 m s^−1 | – | – | – | – | – | – | – |
| MitoTracker Red [Compd 17] | – | – | – | – | – | – | – | – | – | – | – | – | – | – | – | – | – | – | – | – | mean bright detail similarity score with 18 (LYS) ([18]; lysosome-specific reporter LysoTracker): 0.6 ± 0.4; mean bright detail similarity score with 16 (MTG) ([18]; mitochondrial reporter MitoTracker Green): 3.1 ± 0.7 |
| S=C(c1ccc(C2=c3cc4c5c(c3[Se]c3c2cc2c6c3CCCN6CCC2)CCC[N+]=5CCC4)s1)N1CCCCC1.[Cl-] [Compd 5, 9-(5-(piperidylcarbamothioyl)thiophen-2-yl)-2,3,6,7,12,13,16,17-octahydro-[1H,5H,11H,15H]-10-selenoxantheno[2,3,4-ij:5,6,7-i′j′]diquinolizin-18-ium chloride] | – | – | <1 ×10^−9 m s^−1 | 57 | 18 ×10^−9 m s^−1 | 0.51 ± 0.3 ×10^−9 m s^−1 | 0.57 ± 0.1 ×10^−9 m s^−1 | – | 12.1 ± 2.6 | 4.8 ± 1.0 | – | – | 2.0 ± 0.9 | 0.3 ± 0.3 ×10^−9 m s^−1 | 4.1 ± 0.2 | 626 | 99000 | 0.51 ± 0.03 | 2.9 | 17.1 ± 4.3 | ratio of uptake +VER/−VER [15]: 1.17 ± 0.13; Quantum yield for fluorescence ΦFL [17]: 0.010 ± 0.002; Fluorescence emission maximum λFL [17]: 660 nm |
| CN1CCC(C)(C)c2cc3c(cc21)[Se]c1cc2c(cc1=C3c1ccc(C(=O)N3CCCCC3)s1)C(C)(C)CC[N+]=2C.[Cl-] [Compd 10] | 614 | 105000 | ~2 ×10^−9 m s^−1 | 36 | 65 ×10^−9 m s^−1 and 65 ± 6 ×10^−9 m s^−1 | 0.51 ± 0.1 ×10^−9 m s^−1 | 4.0 ± 0.7 ×10^−9 m s^−1 | 0.95 ± 0.03 | 22.2 ± 2.9 | 12.5 ± 0.4 | 645 | 0.007 ± 0.001 | 5.4 ± 0.8 | 1.8 ± 1 ×10^−9 m s^−1 | – | – | – | – | – | 29.8 ± 5.6 | – |
| CN1CCC(C)(C)c2cc3c(-c4ccc(C(=O)N5CCCCC5)s4)c4ccc(=[N+](C)C)cc-4[se]c3cc21.[Cl-] [Compd 4] | – | – | – | – | – | – | – | – | 26.6 ± 4.6 | 17.4 ± 1.7 | – | – | 6.7 ± 1.2 | – | 2.23 ± 0.04 | 609 | 87300 | 0.48 ± 0.03 | 5.1 | 32.3 ± 6.0 | ratio of uptake +VER/−VER [15]: 1.33 ± 0.04; PPassive [16]: ~6 ×10^−9 m s^−1; PAB, transport in absorptive direction [16]: 0.9 ± 0.3 ×10^−9 m s^−1; PBA, transport in secretory direction [16]: 164 ×10^−9 m s^−1 and 164 ± 4 ×10^−9 m s^−1; PBA/PAB [16]: 182; PAB, transport in absorptive direction (+inh) [16]: 1.0 ± 0.1 ×10^−9 m s^−1; PBA, transport in secretory direction (+inh) [16]: 11.1 ± 0.2 ×10^−9 m s^−1; Quantum yield for fluorescence ΦFL [17]: 0.009 ± 0.001; Fluorescence emission maximum λFL [17]: 634 nm |

Source: article PMC5815522 (Bioorganic & medicinal chemistry, 2016)
